This note sets out measurements from the METLIN SMRT retention time set (Domingo-Almenara et al. 2019).

The structures appear in SMILES notation.

The nature of the data set: gradient 5% acetonitrile 3 min, to 50% in 2 min, to 85% in 15 min, held 3 min, 100 µL/min. The settings on record: column: Zorbax Extend-C18 2.1 x 50 mm; eluents: water / acetonitrile, 0.1% formic acid. In short, it runs like this: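 Each retention time is based on an adduct peak selected computationally and verified by manual inspection. Measurements used HPLC–quadrupole time-of-flight mass spectrometry in positive and negative ionization mode on mixtures of ~100 pure standards. Chromatography ran on a Zorbax Extend-C18 column (2.1 × 50 mm, 1.8 μm) at 100 μL/min with water and acetonitrile, each containing 0.1% formic acid, and dead and dwell volumes of 40 μL and 900 μL.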
`Cc1ccc(Nc2c(-c3ccccc3O)nc3ccc(C)cn23)cc1` registered an RP-LC retention time of 774 s.

`CC1CCCC(NC(=O)Cn2cnc3onc(-c4ccc(Cl)cc4)c3c2=O)C1C` (centres undefined) showed an RP-LC retention time of 1100 s. For `CCc1cc(C(=O)NCc2ccccc2Cl)nc2ccnn12`, the RP-LC retention time stood at 1000 s.

Regarding `CC(C)NC(=O)CN1C(=O)C2CCCCN2c2ccc(S(=O)(=O)N3CCCCC3)cc21` (centres undefined), the RP-LC retention time worked out at 850 s. With `O=C(NCc1ccc(F)cc1F)c1ccc(NC(=O)C2CC2)cc1N1CCOCC1`, the RP-LC retention time stood at 798 s. `O=C(Nc1nccnc1C(=O)NCc1ccncc1)c1ccccc1`: the RP-LC retention time was 590 s. Molecule `NS(=O)(=O)c1ccc(CCNCc2ccc(-c3ccc(Cl)cc3)o2)cc1` came in with an RP-LC retention time of 810 s. `Cc1cc(F)ccc1NS(=O)(=O)c1cc2n(c1)CCN(C(C)C)C2=O` returned an RP-LC retention time of 773 s. Consider `Cn1nc(C2CCCN(C(=O)c3ccoc3)C2)n(C2CCCC2)c1=O` (centres undefined), for which the RP-LC retention time worked out at 672 s. The molecule `CN(CCCNC(=O)CN1C(=O)CCn2nc(-c3cn(C)c4ccccc34)cc21)Cc1ccccc1` had an RP-LC retention time of 645 s. Under `CC1(C(=O)NCc2ccc(Cl)cc2)CN(S(C)(=O)=O)CC(=O)N1CCCc1ccccc1` (centres undefined) stands 953 s.

`Cc1cc(C)n(-c2ccc(C(=O)NCc3nc4ccccc4[nH]3)nn2)n1` displayed an RP-LC retention time of 564 s.

The molecule `CCCN1CCN(C(=O)C2CCN(S(=O)(=O)c3ccc4c(c3)sc(=O)n4C(C)C)CC2)CC1` displayed an RP-LC retention time of 665 s. As to `CC(=O)N(Cc1nn(C)c2c1CN(Cc1cccc(O)c1)CC2)c1ccccc1`, the RP-LC retention time amounted to 592 s.

In turn, `CCS(=O)(=O)N1CCCN(C2=NS(=O)(=O)C(c3ccc(C)cc3)=C2C)CC1` showed an RP-LC retention time of 827 s.

Molecule `Cc1ccc(C(=O)CC2(O)C(=O)Nc3ccccc32)c(C)c1` (centres undefined) registered an RP-LC retention time of 759 s. On to `CCOc1ccc(C(=O)N2CCC3(CC2)C(=O)N(C)c2ccccc23)cc1OCC`, for which the RP-LC retention time turned out to be 842 s. Take `CC(C)c1ccc(-c2ccnc3c(C(=O)N4CCN(c5ncccn5)CC4)cnn23)cc1`: the RP-LC retention time was found to be 963 s. In the case of `CCCN1C(=O)COc2ccc(-c3csc(NC(=O)CCC4CCCCC4)n3)cc21`, the RP-LC retention time amounted to 1270 s.

Consider `CCCN1C(=O)COc2ccc(-c3noc(-c4cccc(NC(C)=O)c4)n3)cc21`, for which the RP-LC retention time amounted to 925 s. In turn, `COc1ccc(-c2noc(C3CCCN3C(=O)NC3CCCC3)n2)cc1` (centres undefined) registered an RP-LC retention time of 881 s. The molecule `COc1cccc(NC(=O)Nc2nccn(-c3ccc(F)cc3)c2=O)c1` returned an RP-LC retention time of 898 s. With `Cn1cc(S(=O)(=O)N2CCC(C(=O)NC3CCCC3)CC2)cc1C(=O)N1CCCCC1` the figure was 732 s.

`CC(C)CN1CCN(C(=O)c2nnc(-c3ccc(S(=O)(=O)N(C)C)cc3)o2)CC1` showed an RP-LC retention time of 608 s. With `Cc1oc(-c2ccc(NC(=O)C3CCCO3)cc2)nc1Cn1cccn1` (centres undefined) the figure was 774 s; with `Cc1ccccc1-c1nnc(COc2ccc(NC(=O)c3ccoc3)cc2)o1`, 872 s; with `COc1ccc(S(=O)(=O)N2CCCC(C(=O)Nc3cccc(Br)c3)C2)cc1Cl` (centres undefined), 1110 s. For `Cc1ccc(CCNC(=O)c2cc3n(n2)CC(C)(C(=O)NCc2ccc(F)cc2)N(C)C3=O)cc1` (centres undefined), the RP-LC retention time worked out at 828 s.

With `O=C(C1CCN(c2cnc(N3CCOCC3)nc2)CC1)N1CCCCC1`, the RP-LC retention time stood at 646 s. For `Cc1cccc(CNC(=O)c2ccc3c(c2)Sc2ncccc2C(=O)N3C)c1`, the RP-LC retention time was determined as 796 s. As for `Cc1ccc(-c2noc(Cn3ccn(-c4c(C)cccc4C)c(=O)c3=O)n2)cc1C`, the RP-LC retention time turned out to be 1000 s. With `Cc1ccc(C)c(NC(=O)N2CCC(c3nc(C(=O)N(C)C)c(C)o3)CC2)c1` the figure was 711 s; with `CCN(CC)C(=O)Cn1cc(C(=O)C(=O)N(C)Cc2ccccc2)c2ccccc21`, 890 s; with `O=C1N(c2cccc(F)c2)c2ncccc2S(=O)(=O)N1Cc1ccc(F)cc1`, 1040 s. With `Cc1ccc(-c2cc3c(=O)n(Cc4noc(CN5CCOCC5)n4)ccn3n2)cc1`, the RP-LC retention time is 733 s. The molecule `COc1ccc(N2CC(c3nc(-c4cccc(-c5ccnn5C)c4)no3)CC2=O)cc1` (centres undefined) yielded an RP-LC retention time of 844 s. `COc1ccc(N2CCN(c3nc(C(=O)NCCN(C)C)cs3)CC2)cc1` had an RP-LC retention time of 618 s. In turn, `Cc1c(-c2noc(C(=O)NCCCN3CCCC(C)C3)n2)oc2ccccc12` (centres undefined) returned an RP-LC retention time of 722 s.

With `CC(=O)N1CCN(S(=O)(=O)c2cccc(C(=O)NCc3cccnc3)c2)CC1`, the RP-LC retention time was 533 s. `O=S(=O)(c1cccn2cnnc12)N(Cc1ccc(F)cc1)c1ccc(F)cc1` showed an RP-LC retention time of 834 s. Consider `Cc1nc2nc(-c3ccccc3)nn2c(C)c1CC(=O)N1CCCC1`, for which the RP-LC retention time stood at 679 s.

`CC(O)CCC(=O)NCCc1nc2ccccc2n1Cc1ccccc1F` (centres undefined) yielded an RP-LC retention time of 566 s. `CS(=O)(=O)N1CCC2(CC1)CN(c1cccc(F)c1)C2c1ccccc1` (centres undefined) showed an RP-LC retention time of 1150 s.

The molecule `CSc1nnc(-c2cccc(S(=O)(=O)N3CCCC3)c2)o1` showed an RP-LC retention time of 770 s. `Cn1nc(C(=O)Nc2cccc(-c3nnc4n3CCCC4)c2)c2ccccc21` displayed an RP-LC retention time of 712 s. `COc1ccc(-c2nc(Cc3noc(-c4cccc(F)c4)n3)c(C)o2)cc1` returned an RP-LC retention time of 1040 s. For the molecule `CNC(=O)[C@H]1O[C@@H](n2cnc3c(NCc4cccc(I)c4)nc(Cl)nc32)C(O)[C@H]1O` (some centres undefined), the RP-LC retention time came out at 768 s. The molecule `CCN(CC)c1cc2c(cc1NC(=O)c1ccco1)n(C)c(=O)c(=O)n2C` showed an RP-LC retention time of 724 s. With `CCCCNC(=O)c1ccccc1NC(=O)C1CCN(C(=O)C(C)(C)C)CC1`, the RP-LC retention time was 874 s. The molecule `CC(C)(C)NC(=O)N1CCCN(C2CCN(Cc3ccccc3)C2=O)CC1` (centres undefined) yielded an RP-LC retention time of 618 s. Molecule `Cc1c(Cl)cccc1NC(=O)c1cnc(-c2ccccc2)nc1-c1ccncc1` yielded an RP-LC retention time of 954 s. With `COc1ccc(CN(C)Cc2cc(=O)n3ccccc3n2)cc1OC` the figure was 573 s. For the molecule `COc1ccc(-c2csc(NC(=O)Cn3c(=O)oc4cc(Br)ccc43)n2)cc1`, the RP-LC retention time came to 1070 s. In the case of `Cc1nn(CC(=O)NCc2cccs2)c(=O)c2nc(-c3ccccc3)sc12`, the RP-LC retention time stood at 813 s. On to `NC1=NCC2c3ccccc3Cc3ccccc3N12` (centres undefined), for which the RP-LC retention time was found to be 707 s. With `O=C(COc1ccccc1F)NCC1CN(c2ccc3c(c2)OCO3)C(=O)O1` (centres undefined) the figure was 721 s.

Molecule `CCn1nccc1C(=O)NCCn1c(=O)n(Cc2cccc(C)c2)c2cccnc21` had an RP-LC retention time of 784 s.

As for `CN(C1CCc2nn(Cc3ccccc3)c(=O)n2CC1)S(C)(=O)=O` (centres undefined), the RP-LC retention time turned out to be 666 s.

`CCOc1ccc(NC(=O)N2CCCC(Cn3c(C4CC4)nc4cccnc43)C2)cc1` (centres undefined) came in with an RP-LC retention time of 689 s. As for `COc1ccc(-c2nc3cnccn3c2Nc2cccc(C(=O)O)c2)cc1`, the RP-LC retention time was 894 s.

`Cc1ccc(F)c(-n2nnc(C(=O)O)c2-c2cccnc2)c1` showed an RP-LC retention time of 642 s.

`COc1ccc(C(=O)N2CCCN(c3nnc4ccc(Cl)cn34)CC2)cn1` returned an RP-LC retention time of 579 s. With `CSc1ccc(NC(=O)N2CCC(c3nc(C(=O)N4CCCCC4)c(C)o3)CC2)cc1`, the RP-LC retention time worked out at 840 s. As for `Cc1cc(C)n(-c2ncnc3c2cnn3Cc2ccccc2Cl)n1`, the RP-LC retention time is 1330 s. Molecule `Cc1ccc(-n2c(=O)c3c(cc(C)n3C)n(CC(=O)Nc3cccc(C#N)c3)c2=O)cc1` returned an RP-LC retention time of 822 s. `CCc1nc(-c2csc(S(=O)(=O)N3CCCC(C(=O)NCc4cc(C)ccc4C)C3)c2)no1` (centres undefined) showed an RP-LC retention time of 1080 s. Molecule `O=C(CN1C(=O)CC(c2cccs2)=Nc2ccccc21)NCc1ccccc1` registered an RP-LC retention time of 876 s. For `COc1ccc(C2Cn3nnc(-c4nc(-c5cccc(C(F)(F)F)c5)no4)c3CO2)cc1` (centres undefined), the RP-LC retention time is 1270 s. `Cc1nnc2cc(N3CCN(C(=O)Nc4cccc(Cl)c4)CC3)cnn12` displayed an RP-LC retention time of 596 s. Under `CC(C)NC(=O)c1ccc(-c2nnc3ccc(NC(=O)C4CCC4)cn23)cc1` stands 724 s.

Molecule `CC(C)N1CCC(CNC(=O)c2cccc3ccccc23)CC1` registered an RP-LC retention time of 546 s.

`COc1cc(-c2nc3sc4c(c3c(=O)o2)CCC4)cc(OC)c1OC` had an RP-LC retention time of 1090 s. Molecule `O=C(Nc1ccccc1)c1ccc(=O)n(CCN2CCOCC2)c1` gave an RP-LC retention time of 590 s. Molecule `CCc1c2c(nc3sc(C(=O)NCC4CCCO4)c(N)c13)CC(C)(C)CC2=O` (centres undefined) came in with an RP-LC retention time of 836 s.

As for `Cc1c(C(=O)N2CCOCC2)sc2nc(-c3cccc(F)c3)c(NC3CCCC3)n12`, the RP-LC retention time is 859 s. `O=C(Nc1nnc(C2CCCO2)o1)c1cc2ccccc2o1` (centres undefined) registered an RP-LC retention time of 655 s. For `Cc1ccc(CN2CCN(CC(=O)Nc3ccc(C)cn3)C(=O)C2=O)cc1`, the RP-LC retention time stood at 664 s. In turn, `O=C(Nc1ccc(-c2nnc3n2CCCC3)cc1)c1ccn[nH]1` came in with an RP-LC retention time of 595 s. The molecule `CCOc1ccc(NS(=O)(=O)c2cc3c(s2)CCN(C(=O)C2CCC2)C3)cc1` came in with an RP-LC retention time of 896 s.
